Data on 11 compounds can be found in PubChem BioAssay (NCI).

Among the test systems are ACHN renal; HCC-2998 colon; KM12 colon; MALME-3M melanoma; NCI-H23 lung; SF-295 CNS; SK-OV-3 ovarian; SNB-19 CNS; SNB-75 CNS; U251 CNS.
Common to all, as to assay: NCI tumour cell line growth inhibition, 48 h

The structures appear in SMILES notation.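 All cell lines were grown in 96-well plates and treated with compound for 48 hours. The concentration for 50% growth inhibition is given as GI50. TGI: total growth inhibition.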 Bounds are passed on as bounds.

`C=CCCCCCCCCCCCC1CCC(CC)N1` (stereo not given): the TGI in the test on ACHN renal is 31.1 µM; in the test with HCC-2998 colon it was 8.04 µM; with KM12 colon, 13.1 µM; in the test on MALME-3M melanoma, 31.4 µM; in the test with NCI-H23 lung, 28.6 µM; in the test with SF-295 CNS, 27.8 µM. The TGI with SK-OV-3 ovarian worked out at 31.6 µM; in the test on SNB-19 CNS it was 36.3 µM; with SNB-75 CNS, 33.9 µM; in the test with U251 CNS, 25.5 µM.
With `C=CC(=O)N1CCCC(n2nc(-c3ccc(Oc4ccccc4)cc3)c3c(N)ncnc32)C1` (stereo not given), the GI50 in the test with ACHN renal was 0.248 µM; with HCC-2998 colon, 16 µM; in the test on KM12 colon, 8.73 µM; in the test with MALME-3M melanoma, 12.4 µM; with NCI-H23 lung it was 12.1 µM; in the test on SF-295 CNS, 7.71 µM. The GI50 in the test on SK-OV-3 ovarian is 0.0216 µM; with SNB-19 CNS, 9.14 µM; with SNB-75 CNS, 3.55 µM; in the test with U251 CNS it was 6.11 µM. Besides, the TGI with ACHN renal worked out at 15.8 µM; in the test on HCC-2998 colon, 30.8 µM; in the test with KM12 colon it was 22 µM; with MALME-3M melanoma, 29.3 µM; with NCI-H23 lung, 28.7 µM; in the test with SF-295 CNS, 23.8 µM. The TGI was 15.8 µM in the test with SK-OV-3 ovarian, 22.3 µM in the test with SNB-19 CNS, 14.2 µM in the test with SNB-75 CNS and 20.4 µM in the test with U251 CNS.
As to `c1ccc2c(c1)[I+]c1ccccc1-2`, the GI50 was more than 50 µM with ACHN renal; more than 50 µM in the test with HCC-2998 colon; more than 50 µM in the test with KM12 colon; more than 50 µM with MALME-3M melanoma; 22.9 µM with NCI-H23 lung; 35 µM in the test with SF-295 CNS. In addition, the GI50 with SK-OV-3 ovarian is more than 50 µM; with SNB-19 CNS, more than 50 µM; in the test with SNB-75 CNS, 8.95 µM; with U251 CNS it was 25.5 µM. Also, the TGI in the test on ACHN renal, with HCC-2998 colon, with KM12 colon, with MALME-3M melanoma, with NCI-H23 lung and in the test with SF-295 CNS was more than 50 µM throughout. Moreover, the TGI in the test with SK-OV-3 ovarian, with SNB-19 CNS, in the test on SNB-75 CNS and in the test with U251 CNS was more than 50 µM each time.
With `O=C(C(O)c1cn(Cc2ccccc2)c2ccccc12)N1CCCCC1` (stereo not given), the TGI was more than 100 µM in the test with ACHN renal; more than 100 µM in the test on HCC-2998 colon; more than 100 µM with KM12 colon; more than 100 µM in the test on MALME-3M melanoma; more than 10 µM in the test with NCI-H23 lung; more than 100 µM with SF-295 CNS. The TGI with SK-OV-3 ovarian was more than 100 µM; in the test with SNB-19 CNS, more than 100 µM; in the test on SNB-75 CNS, more than 100 µM; in the test with U251 CNS it was more than 10 µM.
Turning to `NC(N)=N/N=C(/c1nc2ccc([N+](=O)[O-])cc2[nH]c1=O)C(O)c1ccco1` (stereo not given), the TGI with ACHN renal, in the test with HCC-2998 colon, in the test on KM12 colon, in the test with MALME-3M melanoma, with NCI-H23 lung and in the test on SF-295 CNS was more than 100 µM in each case. Further, the TGI with SK-OV-3 ovarian, in the test on SNB-19 CNS, in the test with SNB-75 CNS and in the test on U251 CNS was more than 100 µM in each case.
Turning to `O=C1C=C(c2c(O)ccc3ccccc23)c2ccccc2C1=O`, the TGI with ACHN renal was 11.7 µM; in the test on HCC-2998 colon, 26.5 µM; in the test with KM12 colon it was 11.8 µM; in the test with MALME-3M melanoma it was 26.7 µM; with NCI-H23 lung, 4.92 µM; in the test on SF-295 CNS, 12.4 µM. Besides, the TGI with SK-OV-3 ovarian turned out to be 23.9 µM; in the test on SNB-19 CNS it was 22.4 µM; in the test with SNB-75 CNS it was 12.9 µM; in the test with U251 CNS it was 5.13 µM.
Turning to `COc1ccc2c(c1)C(=O)CC(N)C2` (stereo not given), the TGI in the test on ACHN renal, with HCC-2998 colon, in the test on KM12 colon, in the test with MALME-3M melanoma, in the test with NCI-H23 lung and with SF-295 CNS was more than 100 µM throughout. Further, the TGI with SK-OV-3 ovarian, in the test on SNB-19 CNS, in the test on SNB-75 CNS and with U251 CNS was more than 100 µM each time.
As for `CC1=CSC2=NC(c3ccc(Cl)c(Cl)c3)=CC(c3ccc(Cl)cc3)N12` (stereo not given), the GI50 in the test on ACHN renal, in the test on HCC-2998 colon, in the test with KM12 colon, in the test with MALME-3M melanoma, in the test with NCI-H23 lung and with SF-295 CNS was more than 100 µM in each case. The GI50 in the test with SK-OV-3 ovarian is more than 100 µM; in the test on SNB-19 CNS, more than 100 µM; in the test with SNB-75 CNS, more than 95.3 µM; in the test on U251 CNS, more than 100 µM. Also, the TGI in the test on ACHN renal, in the test with HCC-2998 colon, in the test with KM12 colon, in the test on MALME-3M melanoma, in the test on NCI-H23 lung and with SF-295 CNS was more than 100 µM throughout. Also, the TGI with SK-OV-3 ovarian, in the test on SNB-19 CNS, in the test on SNB-75 CNS and with U251 CNS was more than 100 µM throughout.
Regarding `CCCCCCC/C=C/[C@H]1O[C@]23C(=O)C[C@@]4(C[C@@H](OC5OC(CO)C(O)C(O)C5O)C[C@@H]4[C@H]2C=C1C)OC3=O` (stereo not given in full), the GI50 in the test on ACHN renal is 4.31 µM; with HCC-2998 colon, 4.44 µM; in the test on KM12 colon it was 4.66 µM; in the test on MALME-3M melanoma, 4.82 µM; with NCI-H23 lung it was 5.75 µM; in the test on SF-295 CNS, 5.12 µM. The GI50 in the test with SK-OV-3 ovarian is 7.13 µM; with SNB-19 CNS it was 5.25 µM; in the test with SNB-75 CNS, 2.84 µM; in the test with U251 CNS, 3.55 µM. Moreover, the TGI in the test on ACHN renal is 8.65 µM; in the test on HCC-2998 colon, 9.39 µM; with KM12 colon, 11.6 µM; in the test with MALME-3M melanoma, 9.87 µM; in the test with NCI-H23 lung, 15.8 µM; in the test on SF-295 CNS, 12.7 µM. Also, the TGI came out at 21.6 µM with SK-OV-3 ovarian, 10.2 µM in the test on SNB-19 CNS, 7.17 µM with SNB-75 CNS and 7.63 µM with U251 CNS.
For the compound `CCCCNc1nc(NC(C)(C)C)nc(NC(C)(C)C)n1`, the GI50 with ACHN renal is 6.41 µM; with HCC-2998 colon it was 8.05 µM; with KM12 colon, 4.87 µM; in the test on MALME-3M melanoma it was 49.4 µM; in the test with NCI-H23 lung it was 5.89 µM; in the test on SF-295 CNS it was 6.03 µM. For the same compound, the GI50 in the test on SK-OV-3 ovarian is 19.4 µM; with SNB-19 CNS, 17.6 µM; with SNB-75 CNS it was 12.8 µM; in the test on U251 CNS, 5.92 µM. Moreover, the TGI in the test on ACHN renal, in the test on HCC-2998 colon, in the test with KM12 colon, in the test with MALME-3M melanoma, in the test with NCI-H23 lung and with SF-295 CNS was more than 100 µM throughout. The TGI in the test with SK-OV-3 ovarian is more than 100 µM; with SNB-19 CNS, more than 100 µM; with SNB-75 CNS, 68.7 µM; in the test with U251 CNS, 36.7 µM.
Consider `COc1ccc(NC(=O)C2C(=O)N(c3ccc(OC)cc3)C(=O)/C2=N/O)cc1` (stereo not given), for which the TGI in the test with ACHN renal was 43.2 µM; in the test on HCC-2998 colon it was 47.2 µM; in the test with KM12 colon, 56.7 µM; with MALME-3M melanoma, 42.9 µM; in the test with NCI-H23 lung it was more than 88.1 µM; in the test on SF-295 CNS it was 52.5 µM. The TGI is 39 µM with SK-OV-3 ovarian, more than 70.5 µM in the test on SNB-19 CNS, more than 73.7 µM with SNB-75 CNS and 42.9 µM with U251 CNS.
